According to PubChem BioAssay (NCI):
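A five-concentration, 48-hour dose response in 96-well plates underlies each endpoint, interpolated linearly between surrounding concentrations. GI50 is the concentration that inhibits growth by half. TGI marks complete inhibition of growth.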

Assays:
Assay in all cases: NCI anticancer screen, dose series, 48 h
EKVX NSCLC = system: EKVX NSCLC
K-562 leukemia = system: K-562 leukemia
MDA-MB-231 breast = system: MDA-MB-231 breast
NCI-H522 lung = system: NCI-H522 lung
OVCAR-3 ovarian = system: OVCAR-3 ovarian
OVCAR-4 ovarian = system: OVCAR-4 ovarian
SF-268 CNS = system: SF-268 CNS
SF-539 CNS = system: SF-539 CNS
U251 CNS = system: U251 CNS
UACC-257 melanoma = system: UACC-257 melanoma

Structure (SMILES)	GI50 (EKVX NSCLC) [µM]	TGI (EKVX NSCLC) [µM]	GI50 (K-562 leukemia) [µM]	TGI (K-562 leukemia) [µM]	GI50 (MDA-MB-231 breast) [µM]	TGI (MDA-MB-231 breast) [µM]	GI50 (NCI-H522 lung) [µM]	TGI (NCI-H522 lung) [µM]	GI50 (OVCAR-3 ovarian) [µM]	TGI (OVCAR-3 ovarian) [µM]	GI50 (OVCAR-4 ovarian) [µM]	TGI (OVCAR-4 ovarian) [µM]	GI50 (SF-268 CNS) [µM]	TGI (SF-268 CNS) [µM]	GI50 (SF-539 CNS) [µM]	TGI (SF-539 CNS) [µM]	TGI (U251 CNS) [µM]	TGI (UACC-257 melanoma) [µM]	GI50 (U251 CNS) [µM]	GI50 (UACC-257 melanoma) [µM]
CCCCCCCCCCCCCCCCCC[n+]1ccc2c(C)c3c(c(C)c2c1)c1cc(O)ccc1n3CC	2.15	9.93	1.1	9.13	2.76	12.7	1.89	18.1	1.88	4.68	0.954	12	1.95	5.11	2.2	5.59	–	–	–	–
NC(CSC1c2ccccc2-c2ccccc21)C(=O)O (stereo not given)	–	> 100	–	> 100	–	> 100	–	–	–	> 100	–	> 100	–	–	–	> 100	> 100	> 100	–	–
Fc1ccc(C2SCc3nc4ccccc4n32)c(F)c1 (stereo not given)	–	> 100	–	> 100	–	–	–	> 100	–	> 100	–	> 100	–	> 100	–	> 100	> 100	> 100	–	–
CC(C)NCCCn1c(Sc2cc3c(cc2I)OCO3)nc2c(N)ncnc21	2.53	> 100	0.0708	> 100	0.481	61	0.0588	> 100	0.585	> 100	> 33.3	> 100	2.1	> 100	0.858	> 68.4	> 100	13.5	0.128	0.308
Cc1c(/C=N/N=C/c2[nH]c(C(=O)OC(C)(C)C)c(C)c2C)[nH]c(C(=O)OC(C)(C)C)c1C	–	> 100	–	> 100	–	–	–	> 100	–	> 100	–	> 100	–	> 100	–	> 100	> 100	> 100	–	–
O=C(NC1CCCCC1)NS(=O)(=O)c1ccc2c(c1)CCC2	–	> 100	–	> 100	–	–	–	> 100	–	> 100	–	–	–	> 100	–	> 100	> 100	> 100	–	–
CNCCCNCCCCNCCCN1C(=O)c2ccc3c4c(ccc(c24)C1=O)C(=O)N(CCCNCc1ccccc1OC)C3=O	–	–	2.78	34.6	4.63	70.2	5.62	27.2	2.93	11.3	1.7	9.19	3.51	44.3	2.04	6.82	18	8.07	3.24	1.25
COc1ccc2cc1Oc1ccc(cc1)C[C@H]1c3c(cc4c(c3Oc3cc5c(cc3OC)CCN(C)[C@@H]5C2)OCO4)CCN1C	8.47	18	–	–	1.1	2.87	1.43	6.77	5.38	15	2.52	12.3	5.09	11.5	0.826	1.63	5.52	1.46	0.832	0.727
COc1ccc(C=O)c([N+](=O)[O-])c1	–	> 100	–	36	–	–	–	> 100	–	> 100	–	> 100	–	> 100	–	47.2	> 100	> 100	–	–
Cc1cccc(C)c1NC(=O)/C(=N/NC(N)=S)C(C)C(=O)c1ccc(Cl)cc1 (stereo not given)	–	> 100	–	> 100	–	–	–	> 100	–	> 100	–	> 100	–	> 100	–	> 100	> 100	> 100	–	–
COC(=O)C1CC2CC(=NNC(N)=O)CC2C1 (stereo not given)	–	> 100	–	> 100	–	–	–	> 100	–	> 100	–	> 100	–	> 100	–	> 100	> 100	> 100	–	–
COc1cc2c3c(n(C)c(=O)c2cc1OC)-c1cc2c(cc1/C3=C\CCCCN1C(=O)c3ccccc3C1=O)OCO2	–	–	23.4	> 100	13.3	38.3	–	–	38.1	> 100	26	> 100	9.12	> 100	–	–	25.8	> 100	10.6	23.4
O=C(/C=C\c1cccc([N+](=O)[O-])c1)/C=C/c1cccc([N+](=O)[O-])c1	> 100	> 100	–	–	14.4	> 100	2.79	10.9	2.18	4.32	> 100	> 100	3.08	9.89	7.89	> 100	5.21	> 100	2.06	21.4
CC(=O)Nc1ccc(SC#N)c2c(NC(C)=O)cccc12	–	> 100	–	> 100	–	–	–	> 78.4	–	> 100	–	> 100	–	> 100	–	> 100	> 100	> 100	–	–
OCc1ccc(N2CCCC2c2ccccc2)cc1Cl (stereo not given)	–	–	2.33	10.6	5.58	24.9	5.18	18.6	2.3	10.1	1.39	14.2	13.2	49.5	8.77	21.8	13.3	2.11	2.35	0.544
CN=c1ccc2nc3ccc(N)cc3sc-2c1	–	–	1.12	16.7	0.7	14.3	1.33	7.97	1.02	13.8	0.689	7.07	2.84	17.1	1.75	5.86	10.2	5.04	1.36	1.18
